# Assay results taken from patent US8772267B2, “Treatment of spinal mechanical pain” (New York University, priority 2002, dated 2014).
# Legend:
# [1] = test system: axial mechanical pain of the spine; assay: Axial spinal pain on a numerical scale after intravenous infusion in subjects with chronic spinal mechanical pain; type: in vivo, human
# Description: (§1) Three subjects, suffering from chronic daily (longer than 1 year) axial mechanical pain of the spine, were given approximately 1.2 mg per kg pamidronate as an intravenous infusion over 4 hours once a day for three consecutive days (total 3.6 mg/kg).
# (§2) On the second day of infusion, 2 of the 3 subjects reported myalgias that responded well to anti-inflammatory (NSAID) agents. […] Assessments of axial spinal pain using a numerical scale (0=no pain; 10=the worst pain imaginable) were performed at baseline and at 1 month, 2 month, 4 month, and 6 month follow-up visits.
# [2] = Adverse effects in the infused subjects; type: in vivo, human
# Description: as §1, §2
# [3] = Bone density of the infused subjects; type: in vivo, human; details: all three subjects
# Description: as §1
# Assessments of axial spinal pain using a numerical scale (0=no pain; 10=the worst pain imaginable) were performed at baseline and at 1 month, 2 month, 4 month, and 6 month follow-up visits.
# antinociception = details: injected into the tails of mice; cited from earlier work
# bone resorption = details: animal studies, cited from earlier work
# [4] = test system: bone pain from metastatic cancer; details: patients suffering from bone pain from metastatic cancer; cited from earlier work
# [5] = known; cited from earlier work
# [6] = Subject 1, baseline 8, scale 0-10, 1.2 mg/kg iv once a day for 3 days
# [7] = Subject 2, baseline 8-9, scale 0-10, 1.2 mg/kg iv once a day for 3 days
# [8] = Subject 3, baseline 5, scale 0-10, 1.2 mg/kg iv once a day for 3 days
compound,measurement,setting,value
NCCC(O)(P(=O)(O)O)P(=O)(O)O [pamidronate],use of opioid agents,[1]; 2 months from initiation of infusion therapy,all subjects discontinued the opioid agents
same,pain status of all three subjects 6 months after the 3-day therapy,"[1]; 6 months after therapy, all three subjects",pain free
same,"axial spinal pain, numerical scale, 1 month","[1]; Subject 1 (DDD and osteopenia), baseline 8, 0=no pain, 10=worst pain imaginable, 1.2 mg/kg iv over 4 h once a day for 3 days",4
same,"axial spinal pain, numerical scale, 2 months",[1]; [6],0
same,"axial spinal pain, numerical scale, 4 months",[1]; [6],0
same,"axial spinal pain, numerical scale, 6 months",[1]; [6],0
same,"axial spinal pain, numerical scale, 1 month","[1]; Subject 2 (DDD and moderate osteoporosis), baseline 8-9, scale 0-10, 1.2 mg/kg iv once a day for 3 days",5
same,"axial spinal pain, numerical scale, 2 months",[1]; [7],0
same,"axial spinal pain, numerical scale, 4 months",[1]; [7],0
same,"axial spinal pain, numerical scale, 6 months",[1]; [7],0
same,"axial spinal pain, numerical scale, 1 month","[1]; Subject 3 (DDD), baseline 5, scale 0-10, 1.2 mg/kg iv once a day for 3 days",0
same,"axial spinal pain, numerical scale, 2 months",[1]; [8],0
same,"axial spinal pain, numerical scale, 4 months",[1]; [8],0
same,"axial spinal pain, numerical scale, 6 months",[1]; [8],0
same,duration of pain relieving effects,[1]; iv treatment of chronic spinal mechanical pain,≥ 6 months
same,subjects reporting myalgias,"[2]; second day of infusion, responded well to NSAID agents",2 of the 3
same,"hypocalcemia, cardiac, hepatic or renal impairments","[2]; three subjects, 3.6 mg/kg total iv","did not exhibit any hypocalcemia, cardiac, hepatic or renal impairments"
same,bone density change,[3],increase in their bone density
same,bone density change at 6 months post-infusion,[3]; 6 months post-infusion,increase in their bone density
same,antinociceptive effect,antinociception,dose-dependent antinociception
same,effect on bone resorption,bone resorption; doses recommended for the treatment of hypercalcemia,inhibits bone resorption apparently without inhibiting bone formation and mineralization
same,effect on accelerated bone resorption from osteoclast hyperactivity induced by various tumors,bone resorption,inhibits the accelerated bone resorption
same,longest reported duration of analgesic effect,[4],2-3 weeks
NCCCC(O)(P(=O)(O)O)P(=O)(O)O [alendronate],antinociceptive effect,antinociception,analgesic effect only at the highest dose tested
CC(=O)Oc1ccccc1C(=O)O [acetylsalicylic acid],antinociceptive effect,antinociception,dose-dependent antinociception
CC(C)Cc1ccc(C(C)C(=O)O)cc1 (centres unmarked) [ibuprofen],duration of analgesic effect,[5],only a few hours
CC(=O)Nc1ccc(O)cc1 [acetaminophen],duration of analgesic effect,[5],only a few hours
O=P(O)(O)C(Cl)(Cl)P(=O)(O)O [clodronate],antinociceptive effect,antinociception,dose-dependent antinociception
CC(O)(P(=O)(O)O)P(=O)(O)O [etidronate],antinociceptive effect,antinociception,analgesic effect only at the highest dose tested
